This assay addresses T1, Oxytocin receptor (Homo sapiens, UniProt P30559).
T1 sequence (P30559 whole entry): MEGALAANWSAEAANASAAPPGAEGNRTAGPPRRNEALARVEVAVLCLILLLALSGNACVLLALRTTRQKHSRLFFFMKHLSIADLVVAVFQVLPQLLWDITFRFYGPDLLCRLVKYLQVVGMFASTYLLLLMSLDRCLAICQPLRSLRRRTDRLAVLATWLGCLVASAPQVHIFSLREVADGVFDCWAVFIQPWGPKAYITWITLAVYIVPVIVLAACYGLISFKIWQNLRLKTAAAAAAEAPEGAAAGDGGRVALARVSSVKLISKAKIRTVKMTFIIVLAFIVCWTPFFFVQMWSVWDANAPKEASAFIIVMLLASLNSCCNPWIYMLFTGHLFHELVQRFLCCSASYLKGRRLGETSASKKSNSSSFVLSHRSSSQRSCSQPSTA
Kind of assay: Agonist activity at human OTR expressed in CHO cells assessed as calcium mobilization measured after 30 mins by Fluo-4-AM dye based FLIPR assay. A general note: Calcium assays in cells follow changes in intracellular calcium, usually with a dye or a luminescent sensor.

pEC50: −log10 of the molar value. Numbered stars: 1 amine (or outer) side, 2 acyl side, 3 side chain; on linkers, the order of the positions; unused ones are H or OH. Bridge positions count the residues as written; N and C are the ends. Square brackets hold non-standard residues; d marks the D form. Peptide text beside a SMILES is read from it. tBuAla = CC(C)(C)C[C@H](N)C(=O)O; X1 = O=C(CCC[*:2])[*:1]

`CC[C@H](C)[C@@H]1NC(=O)[C@H](Cc2ccc(O)cc2)NC(=O)CCSSC[C@@H](C(=O)N2CCC[C@H]2C(=O)N[C@@H](CC(C)C)C(=O)NNC(N)=O)NC(=O)[C@H](CC(N)=O)NC(=O)[C@H](CCC(N)=O)NC1=O`: the pEC50 (commonly the EC50 on a negative log10 scale, so that one unit is a factor of ten) was 11.10. To `CC[C@H](C)[C@@H]1NC(=O)[C@H](Cc2ccc(O)cc2)NC(=O)CCCSC[C@@H](C(=O)N2CCC[C@H]2C(=O)N[C@@H](CC(C)(C)C)C(=O)NCC(N)=O)NC(=O)[C@H](CC(N)=O)NC(=O)[C@H](CCC(N)=O)NC1=O` (YIQNCP[tBuAla]G-NH2; linker N-5 via X1) belongs 11.15.

For the origin of these results see BindingDB's records for doi:10.1016/j.bmcl.2017.04.030 (Takeda Pharmaceutical, 2017).
